Source: patent US5686452A, “Indane derivative and processes for preparing the same” (Tanabe Seiyaku Co., Ltd., priority 1994, dated 1997)

Tested on: rat glomerular nephritis
Assay: Action on rat glomerular nephritis (nephrotoxic serum-induced nephritis; urinary protein excretion)
Assay type: in vivo
Details: male WKY rats, NTS-induced nephritis; 30 mg/kg/10 ml orally twice a day for 8 days; 24 h urine collected after 7 days
Protocol: (Action on rat glomerular nephritis)
Rabbits were immunized several times with a renal glomerular basement membrane fraction obtained from WKY strain rats and an adjuvant. Thereafter, blood was collected to obtain a nephrotoxic serum (NTS). This NTS was diluted by 50 times with physiological saline, and the diluted NTS was once administered intravenously to male WKY rats of 8 weeks old in a dose of 2.5 ml per 1 kg of body weight to induce nephritis. In normal group of rats, the same volume of physiological saline was intravenously administered.
In the experiment, one group consisted of 6 rats, and each compound to be tested was suspended in water with small amount of Tween 80 (trade name, produced by Nacalai Tesque Co.), and was orally administered to the test group of rats at a dose of 30 mg/kg/10 ml twice a day for 8 days. In normal group and control group of rats, the same volume of water was orally administered instead of the test compound. After 7 days, the rats were placed in metabolic cages and urine was collected for 24 hours. Concentrations of protein in urine were measured by the sulfosalicylic acid method to determine amounts of protein excreted in the urine (mg/day). The inhibition rate of excretion of protein were calculated by the following equation. [formula]

C=CS(=O)(=O)NCC1Cc2ccc(-c3ccc(=O)[nH]n3)cc2C1 (stereo not drawn) [Example 4]
Inhibition rate (of excretion of protein in urine): 61.5%

CCS(=O)(=O)NCCC1Cc2ccc(-c3ccc(=O)[nH]n3)cc2C1 (stereo not drawn) [Example 6]
Inhibition rate (of excretion of protein in urine): 65.1%

C=CS(=O)(=O)NCCC1Cc2ccc(-c3ccc(=O)[nH]n3)cc2C1 (stereo not drawn) [Example 8]
Inhibition rate (of excretion of protein in urine): 71.6%

C=CS(=O)(=O)NCCCC1Cc2ccc(-c3ccc(=O)[nH]n3)cc2C1 (stereo not drawn) [Example 19]
Inhibition rate (of excretion of protein in urine): 91.8%

C=CS(=O)(=O)NCCCCC1Cc2ccc(-c3ccc(=O)[nH]n3)cc2C1 (stereo not drawn) [Example 12]
Inhibition rate (of excretion of protein in urine): 67.5%

CCCS(=O)(=O)NCCC1Cc2ccc(-c3ccc(=O)[nH]n3)cc2C1 (stereo not drawn) [Example 7]
Inhibition rate (of excretion of protein in urine): 77.2%
